Results reported in PubChem BioAssay (NCI).
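48-hour exposure; five concentrations; linearly interpolated endpoints. Here, GI50 denotes the concentration required for 50% inhibition of growth. TGI marks complete inhibition of growth.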

How the values were obtained:
Test in all cases: inhibition of tumour cell growth, NCI panel, 48 h
ACHN renal = test system: ACHN renal
A498 renal = test system: A498 renal
U251 CNS = test system: U251 CNS
HOP-62 NSCLC = test system: HOP-62 NSCLC
SK-MEL-28 melanoma = test system: SK-MEL-28 melanoma
NCI-H460 lung = test system: NCI-H460 lung
OVCAR-3 ovarian = test system: OVCAR-3 ovarian
BT-549 breast = test system: BT-549 breast
UO-31 renal = test system: UO-31 renal
OVCAR-8 ovarian = test system: OVCAR-8 ovarian
MDA-MB-231 breast = test system: MDA-MB-231 breast
MOLT-4 leukemia = test system: MOLT-4 leukemia
HL-60(TB) leukemia = test system: HL-60(TB) leukemia
MCF7 breast = test system: MCF7 breast
NCI-H23 lung = test system: NCI-H23 lung
SN12C renal = test system: SN12C renal
MALME-3M melanoma = test system: MALME-3M melanoma
HCT-15 colon = test system: HCT-15 colon
PC-3 prostate = test system: PC-3 prostate
HCC-2998 colon = test system: HCC-2998 colon
SK-OV-3 ovarian = test system: SK-OV-3 ovarian
SF-268 CNS = test system: SF-268 CNS
OVCAR-4 ovarian = test system: OVCAR-4 ovarian
SR leukemia = test system: SR leukemia
A549 NSCLC = test system: A549 NSCLC
RXF 393 renal = test system: RXF 393 renal
CAKI-1 renal = test system: CAKI-1 renal
SF-295 CNS = test system: SF-295 CNS
SK-MEL-2 melanoma = test system: SK-MEL-2 melanoma
IGROV1 ovarian = test system: IGROV1 ovarian
TK-10 renal = test system: TK-10 renal
HT29 colon = test system: HT29 colon
SK-MEL-5 melanoma = test system: SK-MEL-5 melanoma
CCRF-CEM leukemia = test system: CCRF-CEM leukemia
OVCAR-5 ovarian = test system: OVCAR-5 ovarian
786-0 renal = test system: 786-0 renal
MDA-MB-468 breast = test system: MDA-MB-468 breast
LOX IMVI melanoma = test system: LOX IMVI melanoma
SF-539 CNS = test system: SF-539 CNS
COLO 205 colon = test system: COLO 205 colon
HS 578T breast = test system: HS 578T breast
MDA-MB-435 = test system: MDA-MB-435
NCI/ADR-RES ovarian = test system: NCI/ADR-RES ovarian
DU-145 prostate = test system: DU-145 prostate
M14 melanoma = test system: M14 melanoma
SW-620 colon = test system: SW-620 colon
UACC-62 melanoma = test system: UACC-62 melanoma
RPMI-8226 leukemia = test system: RPMI-8226 leukemia
HOP-92 NSCLC = test system: HOP-92 NSCLC
NCI-H522 lung = test system: NCI-H522 lung
SNB-19 CNS = test system: SNB-19 CNS
KM12 colon = test system: KM12 colon
K-562 leukemia = test system: K-562 leukemia
EKVX NSCLC = test system: EKVX NSCLC
T-47D breast = test system: T-47D breast
HCT-116 colon = test system: HCT-116 colon
UACC-257 melanoma = test system: UACC-257 melanoma
NCI-H226 lung = test system: NCI-H226 lung

SMILES: COc1ccc(C(=O)/C=C/c2cccc(Cl)c2Cl)cc1S(N)(=O)=O
- GI50 (ACHN renal): 1.77 µM
- TGI (ACHN renal): 3.9 µM
- GI50 (A498 renal): 9.6 µM
- TGI (A498 renal): 20 µM
- GI50 (U251 CNS): 1.31 µM
- TGI (U251 CNS): 2.48 µM
- GI50 (HOP-62 NSCLC): 2.3 µM
- TGI (HOP-62 NSCLC): 7.12 µM
- GI50 (SK-MEL-28 melanoma): 11.1 µM
- TGI (SK-MEL-28 melanoma): 22 µM
- GI50 (NCI-H460 lung): 1.89 µM
- TGI (NCI-H460 lung): 4.94 µM
- GI50 (OVCAR-3 ovarian): 1.8 µM
- TGI (OVCAR-3 ovarian): 4.42 µM
- GI50 (BT-549 breast): 4.73 µM
- TGI (BT-549 breast): 17 µM
- GI50 (UO-31 renal): 1.48 µM
- TGI (UO-31 renal): 3.51 µM
- GI50 (OVCAR-8 ovarian): 2.37 µM
- TGI (OVCAR-8 ovarian): 8.78 µM
- GI50 (MDA-MB-231 breast): 2.57 µM
- TGI (MDA-MB-231 breast): 7.61 µM
- GI50 (MOLT-4 leukemia): 2.09 µM
- TGI (MOLT-4 leukemia): 6 µM
- GI50 (HL-60(TB) leukemia): 7.84 µM
- TGI (HL-60(TB) leukemia): 34.2 µM
- GI50 (MCF7 breast): 3.17 µM
- TGI (MCF7 breast): 13.7 µM
- GI50 (NCI-H23 lung): 3.8 µM
- TGI (NCI-H23 lung): 14.3 µM
- GI50 (SN12C renal): 1.82 µM
- TGI (SN12C renal): 3.91 µM
- GI50 (MALME-3M melanoma): 9.71 µM
- TGI (MALME-3M melanoma): 20.1 µM
- GI50 (HCT-15 colon): 1.29 µM
- TGI (HCT-15 colon): 2.94 µM
- GI50 (PC-3 prostate): 4.49 µM
- TGI (PC-3 prostate): 16.6 µM
- GI50 (HCC-2998 colon): 4.21 µM
- TGI (HCC-2998 colon): 15.5 µM
- GI50 (SK-OV-3 ovarian): 12.4 µM
- TGI (SK-OV-3 ovarian): 23.8 µM
- GI50 (SF-268 CNS): 3.45 µM
- TGI (SF-268 CNS): 14.5 µM
- GI50 (OVCAR-4 ovarian): 3.97 µM
- TGI (OVCAR-4 ovarian): 16.7 µM
- GI50 (SR leukemia): 1.54 µM
- TGI (SR leukemia): 5.36 µM
- GI50 (A549 NSCLC): 2.52 µM
- TGI (A549 NSCLC): 9.42 µM
- GI50 (RXF 393 renal): 2.09 µM
- TGI (RXF 393 renal): 8.56 µM
- GI50 (CAKI-1 renal): 4.36 µM
- TGI (CAKI-1 renal): 15 µM
- GI50 (SF-295 CNS): 3.89 µM
- TGI (SF-295 CNS): 14.7 µM
- GI50 (SK-MEL-2 melanoma): 11.3 µM
- TGI (SK-MEL-2 melanoma): 22.3 µM
- GI50 (IGROV1 ovarian): 3.24 µM
- TGI (IGROV1 ovarian): 12.4 µM
- GI50 (TK-10 renal): 5.18 µM
- TGI (TK-10 renal): 16.9 µM
- GI50 (HT29 colon): 1.52 µM
- TGI (HT29 colon): 2.99 µM
- GI50 (SK-MEL-5 melanoma): 9.19 µM
- TGI (SK-MEL-5 melanoma): 19.4 µM
- GI50 (CCRF-CEM leukemia): 5.74 µM
- TGI (CCRF-CEM leukemia): 33.3 µM
- GI50 (OVCAR-5 ovarian): 1.91 µM
- TGI (OVCAR-5 ovarian): 5.78 µM
- GI50 (786-0 renal): 1.88 µM
- TGI (786-0 renal): 4.28 µM
- GI50 (MDA-MB-468 breast): 2.93 µM
- TGI (MDA-MB-468 breast): 13.1 µM
- GI50 (LOX IMVI melanoma): 1.38 µM
- TGI (LOX IMVI melanoma): 2.54 µM
- GI50 (SF-539 CNS): 1.41 µM
- TGI (SF-539 CNS): 2.61 µM
- GI50 (COLO 205 colon): 2.75 µM
- TGI (COLO 205 colon): 10.3 µM
- GI50 (HS 578T breast): 8.64 µM
- TGI (HS 578T breast): 32.1 µM
- GI50 (MDA-MB-435): 9.65 µM
- TGI (MDA-MB-435): 20.7 µM
- GI50 (NCI/ADR-RES ovarian): 1.89 µM
- TGI (NCI/ADR-RES ovarian): 4.75 µM
- GI50 (DU-145 prostate): 2.86 µM
- TGI (DU-145 prostate): 10.2 µM
- GI50 (M14 melanoma): 9.52 µM
- TGI (M14 melanoma): 21 µM
- GI50 (SW-620 colon): 1.58 µM
- TGI (SW-620 colon): 3.3 µM
- GI50 (UACC-62 melanoma): 4.85 µM
- TGI (UACC-62 melanoma): 16.2 µM
- GI50 (RPMI-8226 leukemia): 2.88 µM
- TGI (RPMI-8226 leukemia): 16.2 µM
- GI50 (HOP-92 NSCLC): 5.44 µM
- TGI (HOP-92 NSCLC): 17.2 µM
- GI50 (NCI-H522 lung): 3.01 µM
- TGI (NCI-H522 lung): 12.6 µM
- GI50 (SNB-19 CNS): 5.09 µM
- TGI (SNB-19 CNS): 16.1 µM
- GI50 (KM12 colon): 1.99 µM
- TGI (KM12 colon): 4.8 µM
- GI50 (K-562 leukemia): 2.67 µM
- TGI (K-562 leukemia): 24.1 µM
- GI50 (EKVX NSCLC): 10.3 µM
- TGI (EKVX NSCLC): 20.9 µM
- GI50 (T-47D breast): 3.94 µM
- TGI (T-47D breast): 16.4 µM
- GI50 (HCT-116 colon): 1.31 µM
- TGI (HCT-116 colon): 2.72 µM
- GI50 (UACC-257 melanoma): 11.2 µM
- TGI (UACC-257 melanoma): 22.5 µM
- GI50 (NCI-H226 lung): 2.3 µM
- TGI (NCI-H226 lung): 7.5 µM
